From ChEMBL document CHEMBL4270597, “Donepezil-butylated hydroxytoluene (BHT) hybrids as Anti-Alzheimer's disease agents with cholinergic, antioxidant, and neuroprotective properties” (Eur J Med Chem, 2018)
Active and inactive are the calls of the source. No cut-off for these calls is given here.

Experiments:
Cholinesterase [1] = biological target: T1, Cholinesterase (Homo sapiens, UniProt P06276); assay: Inhibition of human serum BuChE using butyrylthiocholine iodide as substrate incubated for 5 mins followed by substrate addition measured after 180 secs by Ellman's method; details: read-out: IC50
T1 sequence (P06276 whole entry): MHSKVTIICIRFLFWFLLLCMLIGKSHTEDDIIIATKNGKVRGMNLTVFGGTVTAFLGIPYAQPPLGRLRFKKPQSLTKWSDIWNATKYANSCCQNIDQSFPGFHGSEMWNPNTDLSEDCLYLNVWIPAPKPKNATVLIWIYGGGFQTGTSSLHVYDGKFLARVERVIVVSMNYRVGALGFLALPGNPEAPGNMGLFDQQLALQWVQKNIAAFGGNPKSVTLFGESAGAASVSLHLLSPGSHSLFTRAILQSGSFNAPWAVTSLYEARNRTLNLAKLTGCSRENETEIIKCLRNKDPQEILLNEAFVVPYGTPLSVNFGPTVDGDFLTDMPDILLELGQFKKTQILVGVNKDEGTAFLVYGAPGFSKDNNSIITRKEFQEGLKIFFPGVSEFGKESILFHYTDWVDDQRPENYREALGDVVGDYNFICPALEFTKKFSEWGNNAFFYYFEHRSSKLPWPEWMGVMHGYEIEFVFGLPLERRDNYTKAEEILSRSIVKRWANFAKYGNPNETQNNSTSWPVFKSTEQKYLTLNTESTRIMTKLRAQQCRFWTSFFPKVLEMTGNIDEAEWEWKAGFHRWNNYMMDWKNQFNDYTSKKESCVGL

Acetylcholinesterase [2] = biological target: T2, Acetylcholinesterase (Homo sapiens, UniProt P22303); assay: Inhibition of human erythrocyte AChE using acetylthiocholine chloride as substrate incubated for 5 mins followed by substrate addition measured after 180 secs by Ellman's method
T2 sequence (P22303 whole entry): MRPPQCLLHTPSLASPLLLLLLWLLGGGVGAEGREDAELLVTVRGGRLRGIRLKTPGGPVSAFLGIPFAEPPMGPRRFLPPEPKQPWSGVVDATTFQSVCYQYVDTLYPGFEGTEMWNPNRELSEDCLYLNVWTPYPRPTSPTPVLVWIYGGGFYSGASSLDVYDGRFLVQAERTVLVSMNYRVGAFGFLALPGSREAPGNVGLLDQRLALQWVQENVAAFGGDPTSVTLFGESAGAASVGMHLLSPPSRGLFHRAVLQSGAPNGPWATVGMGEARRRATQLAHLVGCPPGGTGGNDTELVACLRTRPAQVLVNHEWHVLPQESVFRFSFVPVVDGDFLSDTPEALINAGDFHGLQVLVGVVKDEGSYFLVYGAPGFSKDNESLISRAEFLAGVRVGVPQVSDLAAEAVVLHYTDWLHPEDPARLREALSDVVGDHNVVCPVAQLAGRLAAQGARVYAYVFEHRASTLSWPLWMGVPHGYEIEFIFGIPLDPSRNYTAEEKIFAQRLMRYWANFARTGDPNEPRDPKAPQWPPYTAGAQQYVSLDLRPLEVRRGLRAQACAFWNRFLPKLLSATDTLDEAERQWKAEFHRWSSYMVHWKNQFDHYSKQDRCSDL

Homo sapiens = organism: Homo sapiens; assay: Selectivity index, ratio of IC50 for human serum BuChE to IC50 for human erythrocyte AChE
Acetylcholinesterase [3] = biological target: Acetylcholinesterase (Electrophorus electricus, UniProt O42275); assay: Inhibition of electric eel AChE using acetylthiocholine chloride as substrate incubated for 5 mins followed by substrate addition measured after 180 secs by Ellman's method
Acetylcholinesterase (Electrophorus electricus, UniProt O42275), sequence (O42275 whole entry): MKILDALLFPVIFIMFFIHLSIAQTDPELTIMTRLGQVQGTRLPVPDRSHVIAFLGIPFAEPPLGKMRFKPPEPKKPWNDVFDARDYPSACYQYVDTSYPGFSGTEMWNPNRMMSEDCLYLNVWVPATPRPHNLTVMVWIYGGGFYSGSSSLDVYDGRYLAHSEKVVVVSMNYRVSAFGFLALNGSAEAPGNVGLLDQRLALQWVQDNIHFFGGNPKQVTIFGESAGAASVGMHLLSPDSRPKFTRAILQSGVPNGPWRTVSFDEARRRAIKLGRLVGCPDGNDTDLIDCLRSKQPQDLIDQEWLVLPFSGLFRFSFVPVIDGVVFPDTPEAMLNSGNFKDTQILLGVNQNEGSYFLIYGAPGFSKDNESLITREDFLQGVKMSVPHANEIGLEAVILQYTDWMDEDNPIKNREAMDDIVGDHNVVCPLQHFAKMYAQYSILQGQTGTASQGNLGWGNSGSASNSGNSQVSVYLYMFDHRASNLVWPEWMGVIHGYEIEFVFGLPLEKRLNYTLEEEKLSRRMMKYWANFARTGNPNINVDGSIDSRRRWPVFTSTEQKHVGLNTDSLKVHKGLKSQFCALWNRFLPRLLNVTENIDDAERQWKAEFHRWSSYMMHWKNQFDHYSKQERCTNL

[4] = Antioxidant activity assessed as trolox equivalent of AAPH-induced radical scavenging activity preincubated for 15 mins followed by AAPH addition measured every minute for 120 mins by ORAC-FL based fluorescein assay; type: functional
PC-12 [5] = assay: Cytotoxicity against rat PC12 cells assessed as decrease in cell viability at 20 uM after 24 hrs by MTT assay; type: cell-based; details: pc-12, 24 h
Cholinesterase [6] = biological target: Cholinesterase (Equus caballus, UniProt P81908); assay: Inhibition of equine serum BuChE using butyrylthiocholine iodide as substrate incubated for 5 mins followed by substrate addition measured after 180 secs by Ellman's method
Cholinesterase (Equus caballus, UniProt P81908), sequence (P81908 whole entry): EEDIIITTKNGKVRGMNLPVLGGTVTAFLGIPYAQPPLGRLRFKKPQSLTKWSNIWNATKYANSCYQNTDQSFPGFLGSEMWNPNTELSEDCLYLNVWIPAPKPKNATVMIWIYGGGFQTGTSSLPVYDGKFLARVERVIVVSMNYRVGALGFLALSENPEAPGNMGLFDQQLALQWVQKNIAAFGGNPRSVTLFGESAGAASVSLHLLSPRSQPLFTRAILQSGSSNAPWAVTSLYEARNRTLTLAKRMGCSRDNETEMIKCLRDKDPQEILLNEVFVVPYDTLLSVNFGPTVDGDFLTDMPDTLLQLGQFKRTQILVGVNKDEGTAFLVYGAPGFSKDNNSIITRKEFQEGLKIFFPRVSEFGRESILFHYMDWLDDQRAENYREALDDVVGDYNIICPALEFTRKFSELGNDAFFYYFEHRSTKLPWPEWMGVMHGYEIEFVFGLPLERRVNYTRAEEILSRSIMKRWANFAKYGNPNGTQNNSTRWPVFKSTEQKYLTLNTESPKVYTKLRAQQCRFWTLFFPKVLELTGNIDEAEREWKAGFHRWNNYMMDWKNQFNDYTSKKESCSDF

[7] = Antioxidant activity assessed as ABTS radical cation scavenging activity by measuring trolox equivalent antioxidant capacity measured at 6 mins; type: functional
PC-12 [8] = assay: Cytotoxicity against rat PC12 cells assessed as decrease in cell viability at 30 uM after 24 hrs by MTT assay; type: cell-based; details: pc-12, 24 h
[9] = Antioxidant activity assessed as DPPH radical scavenging activity measured after 30 mins incubation in dark by UV-Visible spectrophotometric analysis; type: functional
[10] = Half life in Sprague-Dawley rat liver microsomes in presence of NADPH by UPLC/MS analysis
BV-2 = assay: Antineuroinflammatory activity in mouse BV2 cells assessed as inhibition of LPS-induced NO production at 10 to 30 uM after 24 hrs by Griess assay; type: functional, cell-based
Mus musculus = assay: Reversal of scopolamine-induced memory impairment in ICR mouse assessed as increase in step-through latency time at 5 mg/kg, po administered for 10 consecutive days and 60 mins prior to training trial followed by scopolamine challenge at 30 mins post dose measured 24 hrs after training trial by passive avoidance test; type: functional, organism-based
[11] = biological target: T3, Amine oxidase [flavin-containing] A (Homo sapiens, UniProt P21397); assay: Inhibition of human MAO-A using p-tyramine as substrate incubated for 15 mins followed by substrate addition measured for 20 mins by fluorescence assay
T3 sequence (P21397 whole entry): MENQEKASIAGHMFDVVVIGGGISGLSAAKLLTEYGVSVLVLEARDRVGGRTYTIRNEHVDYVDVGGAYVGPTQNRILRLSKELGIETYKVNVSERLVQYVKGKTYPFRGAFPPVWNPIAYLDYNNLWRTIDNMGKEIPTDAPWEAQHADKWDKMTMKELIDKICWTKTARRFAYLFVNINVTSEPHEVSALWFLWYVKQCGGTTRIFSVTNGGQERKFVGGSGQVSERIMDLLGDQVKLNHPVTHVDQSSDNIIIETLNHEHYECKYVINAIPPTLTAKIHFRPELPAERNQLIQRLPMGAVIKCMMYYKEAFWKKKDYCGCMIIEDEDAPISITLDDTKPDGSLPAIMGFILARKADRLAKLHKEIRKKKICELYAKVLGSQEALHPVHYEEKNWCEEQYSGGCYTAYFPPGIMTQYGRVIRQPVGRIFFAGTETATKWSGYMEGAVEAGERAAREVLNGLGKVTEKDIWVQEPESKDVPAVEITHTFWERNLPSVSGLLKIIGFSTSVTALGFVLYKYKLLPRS

[12] = Antioxidant activity assessed as DPPH radical scavenging activity at 100 uM measured after 30 mins incubation in dark by UV-Visible spectrophotometric analysis relative to control; type: functional
[13] = biological target: T4, Amine oxidase [flavin-containing] B (Homo sapiens, UniProt P27338); assay: Inhibition of human MAO-B using p-tyramine as substrate incubated for 15 mins followed by substrate addition measured for 20 mins by fluorescence assay
T4 sequence (P27338 whole entry): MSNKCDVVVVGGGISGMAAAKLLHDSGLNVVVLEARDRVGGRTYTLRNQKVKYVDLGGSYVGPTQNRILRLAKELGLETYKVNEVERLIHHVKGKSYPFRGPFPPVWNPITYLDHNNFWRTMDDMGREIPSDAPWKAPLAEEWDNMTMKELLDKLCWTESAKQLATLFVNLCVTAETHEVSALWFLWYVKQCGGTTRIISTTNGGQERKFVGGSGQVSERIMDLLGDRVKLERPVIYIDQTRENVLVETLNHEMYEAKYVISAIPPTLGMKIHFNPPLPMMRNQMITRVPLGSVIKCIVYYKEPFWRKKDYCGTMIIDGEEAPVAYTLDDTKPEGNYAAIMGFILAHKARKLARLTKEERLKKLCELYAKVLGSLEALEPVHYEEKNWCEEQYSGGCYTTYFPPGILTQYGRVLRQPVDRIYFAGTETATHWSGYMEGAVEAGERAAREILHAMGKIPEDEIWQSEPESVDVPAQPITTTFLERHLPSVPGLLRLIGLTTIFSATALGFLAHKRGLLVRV

Acetylcholinesterase [14] = biological target: T2, Acetylcholinesterase; assay: Inhibition of human erythrocyte AChE at 100 uM using acetylthiocholine chloride as substrate incubated for 5 mins followed by substrate addition measured after 180 secs by Ellman's method relative to control
[15] = biological target: Cholinesterase (Equus caballus) (UniProt P81908); assay: Inhibition of equine serum BuChE at 100 uM using butyrylthiocholine iodide as substrate incubated for 5 mins followed by substrate addition measured after 180 secs by Ellman's method relative to control
Cholinesterase (Equus caballus), sequence (P81908 whole entry): as the sequence (P81908 whole entry) above

Cholinesterase [16] = biological target: T1, Cholinesterase; assay: Inhibition of human serum BuChE at 100 uM using butyrylthiocholine iodide as substrate incubated for 5 mins followed by substrate addition measured after 180 secs by Ellman's method relative to control
[17] = biological target: T4, Amine oxidase [flavin-containing] B; assay: Inhibition of human MAO-B at 100 uM using p-tyramine as substrate incubated for 15 mins followed by substrate addition measured for 20 mins by fluorescence assay relative to control
[18] = biological target: Acetylcholinesterase (Electrophorus electricus) (UniProt O42275); assay: Inhibition of electric eel AChE at 100 uM using acetylthiocholine chloride as substrate incubated for 5 mins followed by substrate addition measured after 180 secs by Ellman's method relative to control
Acetylcholinesterase (Electrophorus electricus), sequence (O42275 24-633 limits assumed): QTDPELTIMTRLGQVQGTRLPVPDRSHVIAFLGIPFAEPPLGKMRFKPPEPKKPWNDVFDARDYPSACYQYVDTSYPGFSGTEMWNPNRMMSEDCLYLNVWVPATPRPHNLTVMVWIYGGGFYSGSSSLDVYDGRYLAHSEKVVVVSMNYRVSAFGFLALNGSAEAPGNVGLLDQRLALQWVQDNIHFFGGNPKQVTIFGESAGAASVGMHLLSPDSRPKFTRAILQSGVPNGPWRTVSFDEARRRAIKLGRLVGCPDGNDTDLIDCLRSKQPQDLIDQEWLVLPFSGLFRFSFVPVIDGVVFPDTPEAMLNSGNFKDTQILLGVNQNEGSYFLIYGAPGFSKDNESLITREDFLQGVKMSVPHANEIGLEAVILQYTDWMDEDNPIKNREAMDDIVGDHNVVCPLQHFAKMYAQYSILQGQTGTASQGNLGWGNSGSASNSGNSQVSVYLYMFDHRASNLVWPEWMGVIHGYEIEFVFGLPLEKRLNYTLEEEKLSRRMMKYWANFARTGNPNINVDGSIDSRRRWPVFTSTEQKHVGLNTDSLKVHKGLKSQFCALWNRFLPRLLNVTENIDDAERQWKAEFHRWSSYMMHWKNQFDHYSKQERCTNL

[19] = biological target: T3, Amine oxidase [flavin-containing] A; assay: Inhibition of human MAO-A at 100 uM using p-tyramine as substrate incubated for 15 mins followed by substrate addition measured for 20 mins by fluorescence assay relative to control
PC-12 [20] = assay: Neuroprotective activity against H2O2-induced oxidative stress in rat PC12 cells assessed as increase in cell viability pretreated for 4 hrs followed by H2O2 challenge measured after 24 hrs by MTT assay; type: functional, cell-based
[21] = biological target: Amyloid-beta precursor protein (Homo sapiens) (UniProt P05067); assay: Inhibition of self-induced amyloid beta 42 (unknown origin) aggregation at 20 uM incubated for 46 to 48 hrs by thioflavin-T fluorescence assay relative to control
Amyloid-beta precursor protein (Homo sapiens), sequence (P05067 whole entry): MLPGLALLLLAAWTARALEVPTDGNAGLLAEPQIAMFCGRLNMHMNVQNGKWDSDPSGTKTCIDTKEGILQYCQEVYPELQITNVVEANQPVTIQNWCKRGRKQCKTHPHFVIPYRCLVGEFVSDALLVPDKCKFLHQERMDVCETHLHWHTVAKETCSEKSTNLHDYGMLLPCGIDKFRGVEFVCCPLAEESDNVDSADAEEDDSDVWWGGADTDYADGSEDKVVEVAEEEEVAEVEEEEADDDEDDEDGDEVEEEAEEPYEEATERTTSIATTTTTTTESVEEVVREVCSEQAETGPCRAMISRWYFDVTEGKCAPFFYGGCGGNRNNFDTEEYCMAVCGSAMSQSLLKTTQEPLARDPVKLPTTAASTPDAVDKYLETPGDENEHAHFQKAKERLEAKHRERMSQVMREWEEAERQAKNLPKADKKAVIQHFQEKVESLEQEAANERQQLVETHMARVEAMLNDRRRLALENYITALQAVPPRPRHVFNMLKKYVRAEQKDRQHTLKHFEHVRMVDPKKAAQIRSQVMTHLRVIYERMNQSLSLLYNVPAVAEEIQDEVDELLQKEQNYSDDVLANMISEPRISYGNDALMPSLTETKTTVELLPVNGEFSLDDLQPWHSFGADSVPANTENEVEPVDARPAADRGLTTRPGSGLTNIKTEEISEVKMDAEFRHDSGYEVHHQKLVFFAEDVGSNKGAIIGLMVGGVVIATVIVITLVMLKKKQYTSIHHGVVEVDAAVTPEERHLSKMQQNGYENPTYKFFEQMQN

Acetylcholinesterase [22] = biological target: T2, Acetylcholinesterase; assay: Mixed-type inhibition of human AChE using acetylthiocholine chloride as substrate incubated for 5 mins followed by substrate addition by Lineweaver-Burk plot analysis
[23] = biological target: Amyloid-beta precursor protein (Homo sapiens) (UniProt P05067); assay: Inhibition of AChE-induced amyloid beta 40 (unknown origin) aggregation at 100 uM by thioflavin-T fluorescence assay relative to control

SMILES | IC50 (Cholinesterase [1]) [µM] | IC50 (Acetylcholinesterase [2]) [µM] | Ratio IC50 (Homo sapiens) | IC50 (Acetylcholinesterase [3]) [µM] | Activity (mmolequiv/mmol) [4] | Activity (PC-12 [5]) | IC50 (Cholinesterase [6]) [µM] | Activity (mmolequiv/mmol) [7] | Activity (PC-12 [8]) | IC50 [9] [µM] | IC50 [11] [µM] | Activity [12] [%] | IC50 [13] [µM] | inhibition (Acetylcholinesterase [14]) [%] | inhibition [15] [%] | inhibition (Cholinesterase [16]) [%] | inhibition at 100 µM [19] [%] | further results
O=C(/C=C/c1ccc(O)cc1)NCCC1CCN(Cc2ccccc2)CC1 | 1.22 | 2.51 | 0.49 | 0.81 | 1.81 | Non-Toxic | 1.26 | 0.55 | Toxic | 72.1 | – | – | – | – | – | – | – | –
COc1cc2c(cc1OC)C(=O)C(CC1CCN(Cc3ccccc3)CC1)C2 (stereo unspecified) [DONEPEZIL] | – | – | – | – | – | – | – | – | – | – | – | – | – | – | – | – | – | half-life ([10]; microsomes): 1.21 h; inhibition (BV-2): inactive; Activity (Mus musculus): Active
CC(C)(C)c1cc(C(=O)CNCCC2CCN(Cc3ccccc3)CC2)cc(C(C)(C)C)c1O | 19.6 | 1.38 | 14 | 2.44 | 0.31 | – | 48.5 | 0.27 | – | – | 95.2 | 26.7 | 92.1 | – | – | – | – | –
O=C(/C=C/c1ccccc1)NCCC1CCN(Cc2ccccc2)CC1 | 1.67 | 0.45 | 3.7 | 0.55 | 0.72 | Non-Toxic | – | 0.31 | Toxic | > 200 | – | – | – | – | – | – | – | –
CC(C)(C)c1cc(C(=O)NCC2CCN(Cc3ccccc3)CC2)cc(C(C)(C)C)c1O | – | – | – | – | 1.47 | – | – | 0.65 | – | – | – | 48.2 | – | 15.7 | 8.61 | 23.1 | 15.8 | inhibition at 100 µM [17]: 16.1%; inhibition [18]: 38.1%
CC(C)(C)c1cc(/C=C/C(=O)NCCC2CCN(Cc3ccccc3)CC2)cc(C(C)(C)C)c1O | 84.8 | 2.23 | 38 | 0.53 | 1.52 | Non-Toxic | – | 0.91 | Toxic | 81.7 | 62.3 | – | 8.5 | – | 48 | – | – | Activity (PC-12 [20]): Dose-dependent effect; inhibition [21]: 43.5 to 56.7%; Ki (Acetylcholinesterase [22]): 3.2 µM; inhibition [23]: 38.4%
C[C@]12CC[C@H]3[C@@H](CCC4=CC(=O)CC[C@@]43C)[C@@H]1CC[C@@H]2O [TESTOSTERONE] | – | – | – | – | – | – | – | – | – | – | – | – | – | – | – | – | – | half-life ([10]; liver microsomes): < 0.0833 h
CC(C)(C)c1cc(C(=O)CNCC2CCN(Cc3ccccc3)CC2)cc(C(C)(C)C)c1O | 9.61 | 2.44 | 4 | 6.43 | 0.36 | – | 5.38 | 0.28 | – | – | 41.5 | 24.2 | – | – | – | – | – | inhibition at 100 µM [17]: 42%
CC(C)(C)c1cc(C(=O)NC2CCN(Cc3ccccc3)CC2)cc(C(C)(C)C)c1O | – | – | – | 55.6 | 1.53 | – | – | 0.74 | – | – | – | 47.4 | 85.1 | 20.1 | 34.6 | 19.6 | 49.2 | –
CC(C)(C)c1cc(CCC(=O)NCC2CCN(Cc3ccccc3)CC2)cc(C(C)(C)C)c1O | – | – | – | – | 0.97 | – | – | 0.63 | – | 63.4 | – | – | 89.1 | 12.6 | 14.6 | 14 | 38.4 | inhibition [18]: 27.4%
